Assay results as given in patent US20240199562A1, “UREA DERIVATIVES FOR TREATING UVEAL MELANOMA” (CENTRE NATIONAL DE LA RECHERCHE SCIENTIFIQUE, priority 2021, published 2024).
Read-outs that look alike come from different tables or passages of the source. One block for each compound: values may come before it.

Experiments:
MP41 cells [1] = assay: Cell viability (XTT) on uveal melanoma cells MP41; format: cell-based; conditions: for metabolism of UM cells (XTT): MP41 cells, increasing doses, FIG. 2A; for IC50: MP41 cells (primary tumor); for viability of cells: MP41 cells from the primary tumor, in words
Experimental: (§1) FIG. 1: In vitro efficacy of MCK140 and MCK151 on uveal melanoma cells. Cells were treated for 48 hours with increasing doses of MCK140 or MCK151 and the cell viability was then evaluated by XTT.
(§2) FIG. 2A: In vitro efficacy of MCK151, Ladarixin, and AZD-5069 in uveal melanoma cells. MP41 and MM66 cells were treated for 48 hours with increasing doses of MCK151 or Ladarixin or AZD-5069 and the cell metabolism was then evaluated by XTT.
(§3) Cell culture: Uveal melanoma cells were derived from the primary tumor (eye tumor, MP38 and MP46) and one is from liver metastasis (MM66) were a kind gift from Dr. Roman Roman (Curie Institute). UM cells were cultured in RPMI medium supplemented with 20% FBS.
(§4) Cell viability (XTT): Cells (5×10^3 cells/100 μl) were incubated in a 96-well plate with different effectors for the times indicated in the figure legends. 50 μl of sodium 3′-[1-phenylaminocarbonyl)-3,4-tetrazolium]-bis(4-methoxy-6-nitro) benzene sulfonic acid hydrate (XTT) reagent was added to each well. The assay is based on the cleavage of the yellow tetrazolium salt XTT to form an orange formazan dye by metabolically active cells. Absorbance of the formazan product, reflecting cell viability, was measured at 490 nm. Each assay was performed in quadruplicate.

MM66 cells [2] = assay: Cell viability (XTT) on uveal melanoma cells MM66; format: cell-based; conditions: for metabolism of UM cells (XTT): MM66 cells, increasing doses, FIG. 2A; for viability of cells: MM66 cells from liver metastases, in words
Experimental: as §1, §2, §3, §4

MP41 cells [3] = assay: ROS assay (CellROX Deep Red, cytometry); format: cell-based; conditions: MCK151 1, 2.5, 5 μM, Ladarixin 10 μM, FIG. 2B
Experimental: FIG. 2B: Inhibition of ROS production by MCK151 and Ladarixin in uveal melanoma cells. MP41 cells were treated for 48 hours with increasing doses of MCK151 (1 μM, 2.5 μM, and 5 μM) or Ladarixin (10 μM) and ROS quantity was evaluated by cytometry.
ROS assay: Deep Red Reagent was used to assess the level of intracellular ROS. The CellROX/Deep Red reagent (which is initially non-fluorescent) freely enters the cells, where it is cleaved by endogenous esterases. After oxidization by ROS, the reagent becomes highly fluorescent with an absorption/emission maximal of 644/665 nm. Cells were treated 24h and incubated at 37° C. with CellROX Deep Red reagent (0.01 umol/L) for 2 h. The cells were then washed with PBS and analyzed by cytometry.

MP38 cells = assay: Cell viability (XTT) on uveal melanoma cells MP38; format: cell-based; conditions: for IC50: MP38 cells (primary tumor), 48 hours, XTT; for viability of cells: MP38 cells from the primary tumor, in words
Experimental: as §1, §3, §4

SLUG = SLUG protein amount by immunoblotting; format: cell-based; conditions: MP41 and MM66 cells, 2.5 μM, 0-24 h, FIG. 3C
Experimental: FIG. 3C: Slug proteins amount in uveal melanoma cells treated by MCK151. MP41 and MM66 cells were treated with MCK151 (2.5 μM) for different time (0, 2, 4, 6, 8, and 24 h). SLUG protein amounts were evaluated by immunoblotting. HSP90 is used as a loading control.
Immunoblotting: Cells were lysed in SDS 7.5%; glycerol 30%; Tris 0.3 M pH 6.8 lysis buffer. 30 μg of proteins were separated on 10% SDS—polyacrylamide gels and transferred on PVDF membranes. The following primary antibodies were used: SLUG (Cell signaling, ref:9585) and HSP90 (Cell signaling, ref:4877).

MP41 cells [4] = assay: Tumor xenograft, intraperitoneal injection; format: in vivo, mice
Experimental: FIG. 4: In vivo efficacy of MCK151 on mice treated by intraperitoneal injection. Five million MP41 cells were injected subcutaneously into the flank of 5-week-old NOD-SCID female mice. When the tumor reached 100 mm^3, mice were treated every day for 20 days, by intraperitoneal injection with placebo (dextrose water vehicle) or MCK151 (200 or 400 μg in dextrose water vehicle) • A: The tumor volume was evaluated using a calliper. The results are presented as the means±sd. ** p<0.01 • B: Tumor weight at the end of the experiment. ** p<0.01, *** p<0.001 • C: Animal weight at the end of the experiment. ns: non significant
(§5) Tumor xenograft experiments: These studies were carried out in strict accordance with the recommendations in the Guide for the Care and Use of Laboratory Animals. Our experiments were approved by the “Comité National Institutionnel d'Ethique pour l'Animal de Laboratoire”. Five million MP41 cells were injected subcutaneously into the flank of 5-week-old Nod-SDIC female mice (Janvier). When the tumor reached 100 mm3, mice were treated. The tumor volume was determined with a caliper (v=L*l2*0.5).

MM66 cells [5] = assay: Migration assay (Boyden chamber); format: cell-based
Experimental: FIG. 3A: Evaluation of the migration ability of uveal cells treated with MCK151. MP41 and MM66 cells migration was analysed using Boyden chamber assays in the presence/absence of MCK151 (0.1 to 2.5 μM). Representative images were shown. ** p<0.01, *** p<0.001
Migration assays: 50 000 cells were cultured in RPMI 0% FCS and seeded in Boyden chambers. After 24 h, Boyden chambers were washed with PBS. Migrative cells were fixed with paraformaldehyde 3% and colored with crystal violet.

MMP9 mRNA = MMP9 mRNA levels by RT-qPCR; format: cell-based; conditions: MP41 and MM66 cells, 24 hours, 2.5 μM, FIG. 3B
Experimental: FIG. 3B: MMP9 mRNA levels (AU) in uveal melanoma cells. MP41 and MM66 cells were treated for 24 hours with MCK151 (2.5 μM) and MMP9 mRNA levels were evaluated by qPCR. *** p<0.001.
Analyses by RT-qPCR: RNA from cells were purified with the RNeasy Mini Kit (Quiagen). The “QuantiTect Reverse Transcription Kit” (Qiagen) was used for cDNA obtention. The PCR program was executed on “Professional Basic Thermocycler” (Biometra). SYBR master mix plus (Eurogentec) was used for qPCR. The mRNA levels were normalized to 36B4 mRNA.

MP41 cells [6] = assay: Tumor xenograft, gavage; format: in vivo, mice; conditions: orally
Experimental: FIG. 5: In vivo efficacy of MCK151 on mice treated by gavage. Five million MP41 cells were injected subcutaneously into the flank of 5-week-old NOD-SCID female mice. When the tumor reached 100 mm^3, mice were treated every day for 27 days, by gavage with placebo (10% ethanol vehicle) or MCK151 (33 or 100 mg/kg in 10% ethanol vehicle). • A: The tumor volume was evaluated using a calliper. The results are presented as the means±sd. ** p<0.01, *** p<0.001 • B: Tumor weight at the end of the experiment. ** p<0.01, *** p<0.001 ns: non significant • C: Animal weight at the end of the experiment. ns: non significant
as §5
An oral formulation (10% ethanol in ultrapure water) was developed and tested in the same in vivo model (FIG. 5). […] However, a 100 mg/kg dose reduced tumor growth (50% reduction, FIG. 5A).

[7] = 48 h, Table 3, read-out: IC50 (μM) at 48 h MP41
[8] = MM66 cells (liver metastases), 48 h, Table 3, read-out: IC50 (μM) at 48 h MM66
[9] = 48 hours, XTT, Table 2, read-out: IC50 (μM) UM MP41
[10] = MM66 cells (liver metastasis), 48 hours, XTT, Table 2, read-out: IC50 (μM) UM MM66

Compound: C[C@@H](Oc1cc(NS(=O)(=O)N2CCC2)nc(SCc2cccc(F)c2F)n1)[C@@H](O)CO [AZD-5069, reference compound]
metabolism of UM cells (XTT) (MP41 cells [1]; 48 hours): no effect
metabolism of UM cells (XTT) (MM66 cells [2]; 48 hours): no effect

Compound: C[C@@H](C(=O)NS(C)(=O)=O)c1ccc(OS(=O)(=O)C(F)(F)F)cc1 [Ladarixin, reference compound]
metabolism of UM cells (XTT) (MP41 cells [1]; 48 hours): no effect
ROS production by UM cells (MP41 cells [3]): no effect
metabolism of UM cells (XTT) (MM66 cells [2]; 48 hours): no effect

IC50 (MP41 cells [1]; [7]): 32 µM
IC50 (MM66 cells [2]; [8]): 40 µM
Compound: O=C(Nc1ccccc1)Nc1nc2ccccc2[nH]1 [MCK113, 1-(1H-benzo[d]imidazol-2-yl)-3-phenylurea]

IC50 (MP41 cells [1]; [7]): 15 µM
IC50 (MM66 cells [2]; [8]): 20 µM
Compound: CCOc1ccc2nc(NC(=O)Nc3ccccc3C)sc2c1 [MCK133, 1-(6-ethoxybenzo[d]thiazol-2-yl)-3-(o-tolyl)urea]

IC50 (MP41 cells [1]; [7]): 50 µM
IC50 (MM66 cells [2]; [8]): 50 µM
Compound: CCOc1ccc2nc(NC(=O)Nc3ccc(OC)cc3)sc2c1 [MCK135, 1-(6-ethoxybenzo[d]thiazol-2-yl)-3-(4-methoxyphenyl)urea]

IC50 (MP41 cells [1]; [7]): 20 µM
IC50 (MM66 cells [2]; [8]): 15 µM
Compound: O=C(Nc1nc2ccc([N+](=O)[O-])cc2s1)Nc1ccccc1Cl [MCK139, 1-(2-chlorophenyl)-3-(6-nitrobenzo[d]thiazol-2-yl)urea]

IC50 (MP41 cells [1]; [7]): 1 µM
IC50 (MP41 cells [1]; [9]): 1 µM
IC50 (MP38 cells): 1 µM
IC50 (MM66 cells [2]; [8]): 1.25 µM
IC50 (MM66 cells [2]; [10]): 1.25 µM
Compound: O=C(Nc1cccc(Cl)c1)Nc1nc2ccc([N+](=O)[O-])cc2s1 [MCK140, 1-(3-chlorophenyl)-3-(6-nitrobenzo[d]thiazol-2-yl)urea]
viability of cells (MP41 cells [1]): decreased the viability
viability of cells (MP38 cells): decreased the viability
viability of cells (MM66 cells [2]): decreased the viability

IC50 (MP41 cells [1]; [7]): 50 µM
IC50 (MM66 cells [2]; [8]): 50 µM
Compound: Nc1ccc2nc(NC(=O)Nc3cccc(Cl)c3)sc2c1 [MCK148, 1-(6-aminobenzo[d]thiazol-2-yl)-3-(3-chlorophenyl)urea]

IC50 (MP41 cells [1]; [7]): 40 µM
IC50 (MM66 cells [2]; [8]): 25 µM
Compound: CC(=O)Nc1ccc2nc(NC(=O)Nc3cccc(Cl)c3)sc2c1 [MCK149, N-(2-(3-(3-chlorophenyl)ureido)benzo[d]thiazol-6-yl)acetamide]

IC50 (MP41 cells [1]; [7]): 1.25 µM
IC50 (MP41 cells [1]; [9]): 1.25 µM
weight of mice (MP41 cells [4]; whatever the concentration, FIG. 4C): did not modify the weight of mice
IC50 (MP38 cells): 1 µM
IC50 (MM66 cells [2]; [8]): 1.5 µM
IC50 (MM66 cells [2]; [10]): 1.5 µM
mice weight (MP41 cells [6]; 33 and 100 mg/kg/day, FIG. 5C): did not modify mice weight
Compound: O=C(Nc1cc(Cl)cc(Cl)c1)Nc1nc2ccc([N+](=O)[O-])cc2s1 [MCK151, 1-(3,5-dichlorophenyl)-3-(6-nitrobenzo[d]thiazol-2-yl)urea]
expression of SLUG (SLUG): decreases
viability of cells (MP41 cells [1]): decreased the viability
metabolism of UM cells (XTT) (MP41 cells [1]; 48 hours): strongly inhibits the metabolism of UM cells
inhibition of tumor growth (MP41 cells [4]; NOD-SCID mice, 400 μg dose, FIG. 4A): 73%
growth of experimental tumors (MP41 cells [4]; NOD-SCID mice, 200 or 400 μg every day for 20 days, FIG. 4A): inhibited
tumors at the end of the experiment (MP41 cells [4]; NOD-SCID mice, FIG. 4B (tumor weight)): smaller
ROS production by UM cells (MP41 cells [3]): inhibits ROS production
concentration of optimal effect on migration (MM66 cells [5]; Boyden chamber): 0.5 µM
migration ability (MM66 cells [5]; MCK151 0.1 to 2.5 μM, FIG. 3A): inhibits this migration ability
viability of cells (MP38 cells): decreased the viability
viability of cells (MM66 cells [2]): decreased the viability
metabolism of UM cells (XTT) (MM66 cells [2]; 48 hours): strongly inhibits the metabolism of UM cells
MMP9 mRNA levels (MMP9 mRNA): decreases MMP9 mRNA levels
tumor growth (MP41 cells [6]; 33 mg/kg per day, FIG. 5): had a trend to decrease tumor growth
reduction of tumor growth (MP41 cells [6]; 100 mg/kg dose, FIG. 5A): 50%
reduction of tumor weight (MP41 cells [6]; 100 mg/kg dose, FIG. 5B): 50%

IC50 (MP41 cells [1]; [7]): 30 µM
IC50 (MM66 cells [2]; [8]): 12 µM
Compound: Cc1cccc(NC(=O)Nc2nc3ccc([N+](=O)[O-])cc3o2)c1 [MCK153, 1-(6-nitrobenzo[d]oxazol-2-yl)-3-(m-tolyl)urea]

IC50 (MP41 cells [1]; [7]): 8 µM
IC50 (MM66 cells [2]; [8]): 10 µM
Compound: O=C(Nc1ccccc1)Nc1nc2ccc([N+](=O)[O-])cc2[nH]1 [MCK157, 1-(6-nitro-1H-benzo[d]imidazol-2-yl)-3-phenylurea]

IC50 (MP41 cells [1]; [7]): 20 µM
IC50 (MM66 cells [2]; [8]): 10 µM
Compound: O=C(Nc1cccc(Cl)c1)Nc1nc2ccc(Br)cc2s1 [MCK159, 1-(6-bromobenzo[d]thiazol-2-yl)-3-(3-chlorophenyl)urea]

IC50 (MP41 cells [1]; [7]): 10 µM
IC50 (MM66 cells [2]; [8]): 5 µM
Compound: O=C(Nc1cccc(Cl)c1)Nc1nc2ccc(-c3cccc4ccccc34)cc2s1 [MCK164, 1-(3-chlorophenyl)-3-(6-(naphthalen-1-yl)benzo[d]thiazol-2-yl)urea]

IC50 (MP41 cells [1]; [7]): 30 µM
IC50 (MM66 cells [2]; [8]): 25 µM
Compound: O=C(Nc1cccc(Cl)c1)Nc1nc2ccc(-c3ccccn3)cc2s1 [MCK172, 1-(3-chlorophenyl)-3-(6-(pyridin-2-yl)benzo[d]thiazol-2-yl)urea]
